Columns and labels:
Test in all cases: Kinase profiling (radioactive filter binding)
[1] = molecular target: T1, Dyrk1A (Homo sapiens, UniProt Q13627); type: biochemical; settings: for DYRK1A activity in kinase profiling: 1 uM compound; for inhibition at 1 µM: 1 μM compound, read-out: inhibitory activity toward DYRK1A in kinase panel
T1 construct: purchased Invitrogen PV3785

[2] = molecular target: SIK3 (Homo sapiens, UniProt Q9Y2K2); type: biochemical; settings: 1 uM compound
Description: (§1) 3A5 and 5E4 were sent to the International Centre for Kinase Profiling at the MRC Protein Phosphorylation and Ubiquitylation Unit for profiling (as described in ref ([17])). Compounds were profiled against 140 kinases using a radioactive ([^33P]ATP) filter binding assay at a concentration of 1 μM. Results were obtained as inhibition of kinase activity and are listed in Supplementary Table 2.

[3] = molecular target: MNK1 (Homo sapiens, UniProt Q9BUB5); type: biochemical; settings: 1 uM compound
Description: as §1

[4] = molecular target: MARK2 (Homo sapiens, UniProt Q7KZI7); type: biochemical; settings: 1 uM compound
Description: as §1

[5] = molecular target: NEK2a (Homo sapiens, UniProt P51955); type: biochemical; settings: 1 uM compound
Description: as §1

[6] = molecular target: TAO1 (Homo sapiens, UniProt Q7L7X3); type: biochemical; settings: 1 uM compound
Description: as §1

[7] = molecular target: CHK2 (Homo sapiens, UniProt O96017); type: biochemical; settings: 1 uM compound
Description: as §1

[8] = molecular target: ERK8 (Homo sapiens, UniProt Q8TD08); type: biochemical; settings: 1 uM compound
Description: as §1

[9] = molecular target: TAK1 (Homo sapiens, UniProt O43318); type: biochemical; settings: 1 uM compound
Description: as §1

[10] = molecular target: VEG-FR (Homo sapiens, UniProt P17948); type: biochemical; settings: 1 uM compound
Chain of VEG-FR (P17948 27-1338): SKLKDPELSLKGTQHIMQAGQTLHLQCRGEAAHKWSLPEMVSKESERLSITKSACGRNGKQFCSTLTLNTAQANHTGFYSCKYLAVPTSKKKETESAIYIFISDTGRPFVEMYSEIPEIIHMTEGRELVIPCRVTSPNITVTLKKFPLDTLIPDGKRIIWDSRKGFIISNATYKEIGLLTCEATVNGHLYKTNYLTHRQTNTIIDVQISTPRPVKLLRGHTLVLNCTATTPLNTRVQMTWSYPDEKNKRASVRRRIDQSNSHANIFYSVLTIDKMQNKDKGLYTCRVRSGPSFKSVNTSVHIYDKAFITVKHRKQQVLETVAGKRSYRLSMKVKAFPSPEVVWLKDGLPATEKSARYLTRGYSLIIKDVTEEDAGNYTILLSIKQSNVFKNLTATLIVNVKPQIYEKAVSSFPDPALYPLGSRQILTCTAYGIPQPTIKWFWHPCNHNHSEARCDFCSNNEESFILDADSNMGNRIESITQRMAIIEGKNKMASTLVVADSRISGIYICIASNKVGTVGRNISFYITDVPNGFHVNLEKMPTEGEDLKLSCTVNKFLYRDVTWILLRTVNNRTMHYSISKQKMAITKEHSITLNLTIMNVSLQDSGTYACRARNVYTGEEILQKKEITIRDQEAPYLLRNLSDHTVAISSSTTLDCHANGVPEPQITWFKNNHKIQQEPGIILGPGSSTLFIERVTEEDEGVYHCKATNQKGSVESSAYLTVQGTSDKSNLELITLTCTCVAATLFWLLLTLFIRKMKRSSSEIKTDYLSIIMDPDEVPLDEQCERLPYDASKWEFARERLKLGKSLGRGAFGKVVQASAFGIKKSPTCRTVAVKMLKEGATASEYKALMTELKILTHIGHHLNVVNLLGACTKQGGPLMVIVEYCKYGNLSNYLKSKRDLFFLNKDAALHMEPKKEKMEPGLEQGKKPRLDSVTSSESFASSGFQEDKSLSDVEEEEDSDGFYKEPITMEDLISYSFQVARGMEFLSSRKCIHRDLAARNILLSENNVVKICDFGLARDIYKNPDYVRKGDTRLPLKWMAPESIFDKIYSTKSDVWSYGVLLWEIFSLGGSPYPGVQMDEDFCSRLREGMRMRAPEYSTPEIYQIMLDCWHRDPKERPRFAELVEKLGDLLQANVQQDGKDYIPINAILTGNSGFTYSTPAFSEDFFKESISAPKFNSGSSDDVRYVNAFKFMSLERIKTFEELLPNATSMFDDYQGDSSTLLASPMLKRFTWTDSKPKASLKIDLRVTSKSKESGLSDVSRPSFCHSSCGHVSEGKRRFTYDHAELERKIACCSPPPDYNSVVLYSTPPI
Description: as §1

[11] = molecular target: p38g MAPK (Homo sapiens, UniProt P53778); type: biochemical; settings: 1 uM compound
Description: as §1

[12] = molecular target: DYRK2 (Homo sapiens, UniProt Q92630); type: biochemical; settings: 1 uM compound
Description: as §1

[13] = molecular target: PAK2 (Homo sapiens, UniProt Q13177); type: biochemical; settings: 1 uM compound
Chain of PAK2 (Q13177 whole entry): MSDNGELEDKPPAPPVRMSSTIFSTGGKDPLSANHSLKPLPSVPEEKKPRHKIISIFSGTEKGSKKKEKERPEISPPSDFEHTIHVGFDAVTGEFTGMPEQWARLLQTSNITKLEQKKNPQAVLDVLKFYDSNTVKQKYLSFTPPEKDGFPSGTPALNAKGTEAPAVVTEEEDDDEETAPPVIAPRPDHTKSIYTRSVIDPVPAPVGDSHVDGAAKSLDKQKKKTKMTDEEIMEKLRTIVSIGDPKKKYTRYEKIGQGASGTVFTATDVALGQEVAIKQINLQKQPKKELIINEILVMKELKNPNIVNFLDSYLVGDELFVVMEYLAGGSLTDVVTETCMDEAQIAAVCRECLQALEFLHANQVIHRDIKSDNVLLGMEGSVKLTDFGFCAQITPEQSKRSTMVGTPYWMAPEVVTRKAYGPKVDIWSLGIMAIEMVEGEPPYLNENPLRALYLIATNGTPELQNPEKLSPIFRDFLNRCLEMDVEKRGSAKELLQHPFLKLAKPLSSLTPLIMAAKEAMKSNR
Description: as §1

[14] = molecular target: FGF-R1 (Homo sapiens, UniProt P11362); type: biochemical; settings: 1 uM compound
Description: as §1

[15] = molecular target: PLK1 (Homo sapiens, UniProt P53350); type: biochemical; settings: 1 uM compound
Description: as §1

[16] = molecular target: TIE2 (Homo sapiens, UniProt Q02763); type: biochemical; settings: 1 uM compound
Description: as §1

[17] = molecular target: HER4 (Homo sapiens, UniProt Q15303); type: biochemical; settings: 1 uM compound
Description: as §1

[18] = molecular target: PIM2 (Homo sapiens, UniProt Q9P1W9); type: biochemical; settings: 1 uM compound
Description: as §1

[19] = molecular target: ROCK 2 (Rattus norvegicus, UniProt Q62868); type: biochemical; settings: 1 uM compound
Description: as §1

[20] = molecular target: BRSK2 (Homo sapiens, UniProt Q8IWQ3); type: biochemical; settings: 1 uM compound
Description: as §1

[21] = molecular target: EF2K (Homo sapiens, UniProt O00418); type: biochemical; settings: 1 uM compound
Description: as §1

[22] = molecular target: MEKK1 (Homo sapiens, UniProt Q13233); type: biochemical; settings: 1 uM compound
Description: as §1

[23] = molecular target: DDR2 (Homo sapiens, UniProt Q16832); type: biochemical; settings: 1 uM compound
Chain of DDR2 (Q16832 22-855): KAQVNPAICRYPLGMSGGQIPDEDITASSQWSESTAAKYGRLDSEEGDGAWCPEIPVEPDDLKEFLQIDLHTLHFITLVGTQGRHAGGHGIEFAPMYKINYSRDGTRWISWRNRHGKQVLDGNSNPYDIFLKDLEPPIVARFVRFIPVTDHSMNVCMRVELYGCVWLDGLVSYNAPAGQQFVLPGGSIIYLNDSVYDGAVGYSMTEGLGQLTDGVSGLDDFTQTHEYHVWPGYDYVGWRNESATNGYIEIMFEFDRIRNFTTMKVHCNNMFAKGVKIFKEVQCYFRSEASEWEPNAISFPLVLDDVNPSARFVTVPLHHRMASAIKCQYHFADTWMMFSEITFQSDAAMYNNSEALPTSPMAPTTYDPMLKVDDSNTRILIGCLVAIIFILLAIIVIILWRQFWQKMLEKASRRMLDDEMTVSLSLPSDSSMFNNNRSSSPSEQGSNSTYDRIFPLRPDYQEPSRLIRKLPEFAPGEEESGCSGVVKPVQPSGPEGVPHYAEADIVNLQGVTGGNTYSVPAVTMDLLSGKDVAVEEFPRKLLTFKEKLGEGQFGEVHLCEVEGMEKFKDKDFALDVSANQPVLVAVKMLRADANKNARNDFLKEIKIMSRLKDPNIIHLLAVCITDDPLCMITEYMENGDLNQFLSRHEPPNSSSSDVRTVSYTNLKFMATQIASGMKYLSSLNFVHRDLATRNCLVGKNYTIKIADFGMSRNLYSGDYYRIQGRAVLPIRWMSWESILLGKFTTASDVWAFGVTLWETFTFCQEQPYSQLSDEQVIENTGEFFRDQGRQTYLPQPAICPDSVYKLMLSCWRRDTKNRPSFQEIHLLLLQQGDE
Description: as §1

[24] = molecular target: NUAK1 (Homo sapiens, UniProt O60285); type: biochemical; settings: 1 uM compound
Description: as §1

[25] = molecular target: CAMK1 (Homo sapiens, UniProt Q14012); type: biochemical; settings: 1 uM compound
Description: as §1

[26] = molecular target: TSSK1 (Homo sapiens, UniProt Q9BXA7); type: biochemical; settings: 1 uM compound
Description: as §1

[27] = molecular target: MAP4K5 (Homo sapiens, UniProt Q9Y4K4); type: biochemical; settings: 1 uM compound
Description: as §1

[28] = molecular target: MAPKAP-K2 (Homo sapiens, UniProt P49137); type: biochemical; settings: 1 uM compound
Description: as §1

[29] = molecular target: PAK5 (Homo sapiens, UniProt Q9P286); type: biochemical; settings: 1 uM compound
Description: as §1

[30] = molecular target: Aurora B (Homo sapiens, UniProt Q96GD4); type: biochemical; settings: 1 uM compound
Description: as §1

[31] = molecular target: TTBK1 (Homo sapiens, UniProt Q5TCY1); type: biochemical; settings: 1 uM compound
Description: as §1

[32] = molecular target: EIF2AK3 (Homo sapiens, UniProt Q9NZJ5); type: biochemical; settings: 1 uM compound
Chain of EIF2AK3 (Q9NZJ5 30-1116): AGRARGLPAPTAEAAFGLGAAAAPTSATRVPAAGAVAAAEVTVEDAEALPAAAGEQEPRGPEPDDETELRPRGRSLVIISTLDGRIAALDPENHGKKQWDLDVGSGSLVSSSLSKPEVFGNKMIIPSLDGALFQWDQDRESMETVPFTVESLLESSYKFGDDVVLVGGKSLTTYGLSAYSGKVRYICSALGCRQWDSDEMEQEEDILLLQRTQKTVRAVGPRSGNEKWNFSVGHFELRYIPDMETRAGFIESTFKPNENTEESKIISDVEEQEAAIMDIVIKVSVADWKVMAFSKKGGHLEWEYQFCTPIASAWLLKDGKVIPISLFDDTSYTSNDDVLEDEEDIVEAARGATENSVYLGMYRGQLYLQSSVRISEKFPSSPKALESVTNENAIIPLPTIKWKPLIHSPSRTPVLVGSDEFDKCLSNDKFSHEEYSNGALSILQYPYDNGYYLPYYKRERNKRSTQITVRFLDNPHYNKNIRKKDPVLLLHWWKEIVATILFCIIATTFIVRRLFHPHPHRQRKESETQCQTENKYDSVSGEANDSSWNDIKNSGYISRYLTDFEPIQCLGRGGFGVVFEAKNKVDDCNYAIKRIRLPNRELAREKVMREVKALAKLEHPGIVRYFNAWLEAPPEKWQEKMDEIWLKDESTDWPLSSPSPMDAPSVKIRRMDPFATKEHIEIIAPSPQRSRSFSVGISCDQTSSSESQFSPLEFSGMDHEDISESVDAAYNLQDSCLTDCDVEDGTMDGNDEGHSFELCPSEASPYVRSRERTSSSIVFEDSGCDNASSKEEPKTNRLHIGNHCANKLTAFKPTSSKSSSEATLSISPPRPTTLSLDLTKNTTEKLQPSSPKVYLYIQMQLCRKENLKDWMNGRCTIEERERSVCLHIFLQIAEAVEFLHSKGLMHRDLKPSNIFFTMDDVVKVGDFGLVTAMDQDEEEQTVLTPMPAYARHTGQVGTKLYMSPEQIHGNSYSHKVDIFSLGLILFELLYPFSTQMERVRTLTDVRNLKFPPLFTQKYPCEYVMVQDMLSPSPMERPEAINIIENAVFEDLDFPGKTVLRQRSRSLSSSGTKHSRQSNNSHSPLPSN
Description: as §1

[33] = molecular target: PKCa (Homo sapiens, UniProt P17252); type: biochemical; settings: 1 uM compound
Description: as §1

[34] = molecular target: YES1 (Homo sapiens, UniProt P07947); type: biochemical; settings: 1 uM compound
Chain of YES1 (P07947 whole entry): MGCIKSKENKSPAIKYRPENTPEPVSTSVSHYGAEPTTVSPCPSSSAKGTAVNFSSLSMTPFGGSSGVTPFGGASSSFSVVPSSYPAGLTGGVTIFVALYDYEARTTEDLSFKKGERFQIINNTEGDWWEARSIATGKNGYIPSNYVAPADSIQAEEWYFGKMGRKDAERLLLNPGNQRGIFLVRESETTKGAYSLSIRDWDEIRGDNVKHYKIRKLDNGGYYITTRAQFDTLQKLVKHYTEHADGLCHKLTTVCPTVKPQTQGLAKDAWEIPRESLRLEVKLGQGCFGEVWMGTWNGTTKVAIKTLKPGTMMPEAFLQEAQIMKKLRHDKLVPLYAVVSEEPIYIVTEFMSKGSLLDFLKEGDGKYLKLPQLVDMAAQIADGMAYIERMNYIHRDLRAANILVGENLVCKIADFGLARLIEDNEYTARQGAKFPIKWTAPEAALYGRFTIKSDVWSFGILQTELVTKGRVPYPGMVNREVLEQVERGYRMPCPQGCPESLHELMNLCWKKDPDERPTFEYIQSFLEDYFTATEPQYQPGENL
Description: as §1

[35] = molecular target: PKCz (Homo sapiens, UniProt Q05513); type: biochemical; settings: 1 uM compound
Chain of PKCz (Q05513 whole entry): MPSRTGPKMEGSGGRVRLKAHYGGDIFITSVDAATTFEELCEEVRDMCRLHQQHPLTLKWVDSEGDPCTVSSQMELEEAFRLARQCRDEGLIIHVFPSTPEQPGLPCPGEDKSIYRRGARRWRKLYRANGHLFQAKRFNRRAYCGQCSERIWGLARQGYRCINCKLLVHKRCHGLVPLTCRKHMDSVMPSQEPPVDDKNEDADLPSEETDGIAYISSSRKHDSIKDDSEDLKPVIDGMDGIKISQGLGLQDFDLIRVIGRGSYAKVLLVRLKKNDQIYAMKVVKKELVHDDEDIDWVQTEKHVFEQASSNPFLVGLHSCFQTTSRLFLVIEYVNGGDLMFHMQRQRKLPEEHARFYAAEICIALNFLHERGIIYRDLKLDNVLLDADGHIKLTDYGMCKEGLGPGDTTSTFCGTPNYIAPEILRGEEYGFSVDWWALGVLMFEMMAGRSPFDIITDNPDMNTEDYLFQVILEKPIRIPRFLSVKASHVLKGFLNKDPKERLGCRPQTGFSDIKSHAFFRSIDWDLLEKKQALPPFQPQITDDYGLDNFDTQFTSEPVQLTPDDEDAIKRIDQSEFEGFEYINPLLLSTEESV
Description: as §1

[36] = molecular target: GCK (Homo sapiens, UniProt Q12851); type: biochemical; settings: 1 uM compound
Description: as §1

[37] = molecular target: SRPK1 (Homo sapiens, UniProt Q96SB4); type: biochemical; settings: 1 uM compound
Description: as §1

[38] = molecular target: PKBa (Homo sapiens, UniProt P31749); type: biochemical; settings: 1 uM compound
Description: as §1

[39] = molecular target: MST4 (Homo sapiens, UniProt Q9P289); type: biochemical; settings: 1 uM compound
Description: as §1

[40] = molecular target: JNK2 (Homo sapiens, UniProt P45984); type: biochemical; settings: 1 uM compound
Description: as §1

[41] = tested on: AMPK (hum); type: biochemical, human; settings: 1 uM compound
Description: as §1

[42] = tested on: PHK; type: biochemical, human; settings: 1 uM compound
Description: as §1

Cc1nc2ccc3sc(NC(=O)c4ccc5ncsc5c4)nc3c2s1 [3A5, N-(2-methyl[1,3]thiazolo[5,4-e][1,3]benzothiazol-7-yl)-1,3-benzothiazole-6-carboxamide]
DYRK1A activity in kinase profiling [1]: 16 | inhibition at 1 µM [1]: 84% | SIK3 activity in kinase profiling [2]: 84 | MNK1 activity in kinase profiling [3]: 109 | MARK2 activity in kinase profiling [4]: 87 | NEK2a activity in kinase profiling [5]: 81 | TAO1 activity in kinase profiling [6]: 94 | CHK2 activity in kinase profiling [7]: 77 | ERK8 activity in kinase profiling [8]: 82 | TAK1 activity in kinase profiling [9]: 87 | VEG-FR activity in kinase profiling [10]: 108 | p38g MAPK activity in kinase profiling [11]: 107 | DYRK2 activity in kinase profiling [12]: 61 | PAK2 activity in kinase profiling [13]: 92 | FGF-R1 activity in kinase profiling [14]: 149 | PLK1 activity in kinase profiling [15]: 110 | TIE2 activity in kinase profiling [16]: 98 | HER4 activity in kinase profiling [17]: 94 | PIM2 activity in kinase profiling [18]: 78 | ROCK 2 activity in kinase profiling [19]: 68 | BRSK2 activity in kinase profiling [20]: 88 | EF2K activity in kinase profiling [21]: 71 | MEKK1 activity in kinase profiling [22]: 79 | DDR2 activity in kinase profiling [23]: 88 | NUAK1 activity in kinase profiling [24]: 73 | CAMK1 activity in kinase profiling [25]: 85 | TSSK1 activity in kinase profiling [26]: 81 | MAP4K5 activity in kinase profiling [27]: 91 | MAPKAP-K2 activity in kinase profiling [28]: 107 | PAK5 activity in kinase profiling [29]: 75 | Aurora B activity in kinase profiling [30]: 69 | TTBK1 activity in kinase profiling [31]: 101 | EIF2AK3 activity in kinase profiling [32]: 119 | PKCa activity in kinase profiling [33]: 100 | YES1 activity in kinase profiling [34]: 112 | PKCz activity in kinase profiling [35]: 115 | GCK activity in kinase profiling [36]: 90 | SRPK1 activity in kinase profiling [37]: 56 | activity at 1 µM [38]: 123% | MST4 activity in kinase profiling [39]: 90 | JNK2 activity in kinase profiling [40]: 100 | AMPK (hum) activity in kinase profiling [41]: 68 | PHK activity in kinase profiling [42]: 104

CSc1nc2ccc3nc(NC(=O)c4ccco4)sc3c2s1 [5E4, N-[7-(methylsulfanyl)[1,3]thiazolo[4,5-g][1,3]benzothiazol-2-yl]-2-furamide]
DYRK1A activity in kinase profiling [1]: 3 | inhibition at 1 µM [1]: 97% | SIK3 activity in kinase profiling [2]: 79 | MNK1 activity in kinase profiling [3]: 99 | MARK2 activity in kinase profiling [4]: 90 | NEK2a activity in kinase profiling [5]: 83 | TAO1 activity in kinase profiling [6]: 99 | CHK2 activity in kinase profiling [7]: 88 | ERK8 activity in kinase profiling [8]: 83 | TAK1 activity in kinase profiling [9]: 67 | VEG-FR activity in kinase profiling [10]: 53 | p38g MAPK activity in kinase profiling [11]: 105 | DYRK2 activity in kinase profiling [12]: 9 | PAK2 activity in kinase profiling [13]: 97 | FGF-R1 activity in kinase profiling [14]: 109 | PLK1 activity in kinase profiling [15]: 102 | TIE2 activity in kinase profiling [16]: 89 | HER4 activity in kinase profiling [17]: 102 | PIM2 activity in kinase profiling [18]: 71 | ROCK 2 activity in kinase profiling [19]: 96 | BRSK2 activity in kinase profiling [20]: 83 | EF2K activity in kinase profiling [21]: 79 | MEKK1 activity in kinase profiling [22]: 108 | DDR2 activity in kinase profiling [23]: 95 | NUAK1 activity in kinase profiling [24]: 82 | CAMK1 activity in kinase profiling [25]: 106 | TSSK1 activity in kinase profiling [26]: 81 | MAP4K5 activity in kinase profiling [27]: 89 | MAPKAP-K2 activity in kinase profiling [28]: 92 | PAK5 activity in kinase profiling [29]: 81 | Aurora B activity in kinase profiling [30]: 64 | TTBK1 activity in kinase profiling [31]: 99 | EIF2AK3 activity in kinase profiling [32]: 84 | PKCa activity in kinase profiling [33]: 81 | YES1 activity in kinase profiling [34]: 110 | PKCz activity in kinase profiling [35]: 103 | GCK activity in kinase profiling [36]: 24 | SRPK1 activity in kinase profiling [37]: 81 | activity at 1 µM [38]: 103% | MST4 activity in kinase profiling [39]: 93 | JNK2 activity in kinase profiling [40]: 107 | AMPK (hum) activity in kinase profiling [41]: 84 | PHK activity in kinase profiling [42]: 110

From paper PMC4730229, “Benzobisthiazoles Represent a Novel Scaffold for Kinase Inhibitors of CLK Family Members” (Biochemistry, 2015)
